According to patent US20130336940A1, “MODIFIED PIG ISLETS FOR DIABETES TREATMENT” (UNIVERSITE CATHOLIQUE DE LOUVAIN, priority 2011, published 2013):

How the values were obtained:
pig pancreatic islets = test: Histomorphometry of pancreatic islets prior to isolation (alpha/beta cells) after STZ; format: in vivo
Protocol: Five doses (0, 30, 50, 75, 100 mg/kg) of filter-sterilized Streptozotocin (STZ) (Sigma, Bornem, Belgium) were tested. STZ was solubilised in citrate buffer (25% v/v Na citrate, 23% v/v citric acid, 52% v/v H2O, pH 4.5) and filtered before injection in the external jugular vein (Dufrane, Transplantation, 2006).
The cellular composition of islets was determined by immunohistochemistry in small samples of human and pig pancreas taken during dissection of the gland. After overnight fixation in formol at room temperature, the small biopsies were embedded in paraffin and cut in 5 μm sections. These sections were thereafter deparaffinized, rehydrated and washed with a solution of Tris-HCl-Buffered solution 0.05 mol/L (TBS, pH 7.4). After inactivation of endogenous peroxidase by a 30-minute incubation in 0.3% H2O2, the sections were incubated with 10% normal goat serum (NGS) in TBS for 30 minutes. The sections were then incubated overnight at 4° C. with glucagon rabbit polyclonal antibody (BD Bioscience, Erembodegem, Belgium) diluted at 1:100. After washes in TBS, the slides were incubated for 30 minutes with anti-rabbit-IgG (1:500) and these antibodies detected by EnVision anti-rabbit system (Dako A/S, Glostrup, Denmark) for 1 hour at room temperature. […] The glucagon staining was followed by the detection of the β-cells by alkaline phosphatase anti-alkaline phosphatase system (APAAP). After washing, aspecific sites were again inhibited by a 30 minutes incubation with 10% normal goat serum (NGS) in TBS. The slides were thereafter incubated overnight with mouse insulin monoclonal antibody (Abcam, Cambridge, UK) diluted at 1:800.
Islets from human and pig pancreas were compared for cellular proportion and geometric distribution of α and β cells (centre/periphery). Following the islets size, 3 groups of 5 islets (50-99, 100-149 and 150-200 μm) were compared in native/modified young pig versus human pancreas.
The number of small β-cell clusters (≦3 insulin-immunoreactive cells) in the total area of the slide was also assessed. The number of these clusters was manually counted through the entire slide. The area of the slide was measured with ImageJ 1.43i software after capture of pictures of slides with a camera Nikon Coolscan 5000, accessory FH-G1) and calibrated with a stage micrometer to correspond to the number of pixels evidenced on the image analyser.

isolated pig islets = test: Islet structure after isolation (histology of isolated islets from STZ-treated pigs); format: in vivo; settings: for proportion of beta-cells in islets: mean±SD, native 91.47±1.19
Protocol: (ii) Young pig islets treated with selected doses of STZ (0, 30, 50 mg/kg) were isolated following a method previously described by Dufrane et al, Xenotransplantation, 2006. Briefly, after being completely dissected, the pancreas were digested by a modified static digestion method: infusion of the pancreas with Liberase DL Research Grade (Roche/Boehringer Mannheim, Brussels, Belgium; 0.43 mg/mL) dissolved in modified UW solution; placement in a sterile 1 L Nalgene jar for digestion by static incubation at 37° C. for 30-50 minutes; filtration in a 500 μm filter; purification in a ficoll grade (densities 1.090, 1.060 and 1.010) (Mediatech Cellgro); washing and suspension of the islets in Ham-F10 (Gibco)+10% New Born Calf Serum (NCS; Merck-Eurolab, Overijse, Belgium).
The cellular composition of human and pig isolated islets was determined by immunohistochemistry. After overnight fixation in formol at room temperature, aliquots of islet preparations were embedded in paraffin and cut in 5 μm sections. Insulin and glucagon staining were performed as described above.
Alpha and β cells proportion and localization (for pig and human) inside islets were compared in isolated islets from 0, 30 and 50 mg/kg STZ pigs in 3 groups of 5 islets (50-99, 100-149 and 150-200 μm).

pigs = test: Intravenous glucose tolerance test (IVGTT) in STZ-injected pigs; format: in vivo, pig
Protocol: […] STZ was solubilised in citrate buffer (25% v/v Na citrate, 23% v/v citric acid, 52% v/v H2O, pH 4.5) and filtered before injection in the external jugular vein (Dufrane, Transplantation, 2006).
Intravenous glucose tolerance tests (IVGTTs) were performed prior and 3 months after STZ injection under general anesthesia (induction by Zoletil (VIRBAC, Carros, France) IM at a dose of 6 mg/kg, maintained by intubation and inhalation of Enflurane (0-1.5%), nitrous oxide and oxygen. A catheter was introduced in the extern jugular vein and a solution of 0.5 g glucose/kg was injected. Blood samples were taken prior and 1, 3, 5, 10, 20, 30, 60, 90 minutes after complete injection of glucose. Glycaemia was measured on these samples (AccuChek, Roche, Brussels, Belgium) and serum was conserved for radioimmuno assay (RIA) quantifications (insulin, c-peptide).

monkeys = settings: cited from earlier work
hamsters = settings: after STZ treatment; cited from earlier work
[1] = STZ 50 mg/kg, by linear regression
[2] = STZ 75 mg/kg, islets of 50-100 μm, prior to isolation
[3] = STZ 30 mg/kg, isolated islets of 50-150 μm
[4] = STZ 50 mg/kg, isolated islets of 50-150 μm
[5] = STZ 50 mg/kg, isolated islets of each size

CN(N=O)C(=O)N[C@H]1C(O)O[C@H](CO)[C@@H](O)[C@@H]1O (mixture of isomers) [STZ, Streptozotocin]
theoretical increase in the proportion of α cells (pig pancreatic islets; [1]): 30% | theoretical reduction of the proportion of β cells (pig pancreatic islets; [1]): 30% | number of alpha cells per islet in comparison to humans (pig pancreatic islets; [2]): higher number of alpha cells | number of beta cells per islet in comparison to humans (pig pancreatic islets; [2]): lower number of beta cell | number of beta cells per islet in comparison to humans (pig pancreatic islets; STZ 100 mg/kg, islets of 50-100 μm, prior to isolation): lower number of beta cells | number of alpha cells per islet in comparison to humans (pig pancreatic islets; STZ 30-50 mg/kg, islets of 50-100 μm and 150-200 μm, prior to isolation): lower number of alpha cells per islet | alpha cell proportion in comparison to human islets (pig pancreatic islets; STZ 30-50 mg/kg, large islets (150-200 μm), prior to isolation): lower alpha cell proportion | proportion of alpha cells per islet in comparison to humans (pig pancreatic islets; STZ 75-100 mg/kg, each islet size, prior to isolation): higher proportion of alpha cells | beta cell regeneration (from duct or exocrine tissue) (pig pancreatic islets; STZ-treated pig pancreas): No sign of beta cell regeneration | number of α and β cells per islet (pig pancreatic islets; from doses of 30 mg/kg STZ, prior to isolation): increased significantly | number of alpha cells per islet in comparison to humans (isolated pig islets; [3]): higher number of alpha cells | proportion of beta-cells in islets (isolated pig islets; [3]): 60.46±3.70 | proportion of alpha cells per islet in comparison to humans (isolated pig islets; STZ 30 mg/kg, isolated islets of 100-150 μm): higher proportion of alpha cells | number of beta cells per islet in comparison to humans (isolated pig islets; STZ 30 mg/kg, isolated islets of 100-200 μm): higher number of beta cells | number of beta cells in comparison to humans (isolated pig islets; [4]): higher | proportion of beta-cells in islets (isolated pig islets; [4]): 60.46±4.55 | alpha cell proportion in comparison to humans (isolated pig islets; [5]): higher alpha cell proportion | number of alpha cells per islet in comparison to humans (isolated pig islets; [5]): higher number of alpha cells | number of beta cells in comparison to humans (isolated pig islets; STZ 50 mg/kg, large isolated islets (150-200 μm)): similar | decrease of β-cells (proportion) (isolated pig islets; STZ 30-50 mg/kg): 30% | increase of α-cells (isolated pig islets; STZ 30-50 mg/kg): ~300% | α-cells in remodeled pig islet (isolated pig islets; STZ 30-50 mg/kg): 30% | β-cells in remodeled pig islet (isolated pig islets; STZ 30-50 mg/kg): 60% | AUC for IVGTT curves (pigs; STZ 150 mg/kg): significant higher AUC | glucose metabolism (IVGTT curves) (pigs; STZ 30, 50, 75 and 100 mg/kg, single injection, IVGTT 3 months after, vs control animals): not sufficient to induce dysfunction in glucose metabolism | glucose uptake (IVGTT) (pigs; STZ 30-50 mg/kg): did not affect glucose uptake | number of α-cells (monkeys; after STZ treatment, monkeys): increased | increase of glucagon mass (monkeys; after long-term diabetes (>53 days), treated primates): ~89% | glucagon content (hamsters): increased
